Test results taken from US10221138B2, “Biaryl derivatives as GPR120 agonists” (LG CHEM, LTD., priority 2013, dated 2019).

The molecules below were run against T1, hGPR120 (Homo sapiens, UniProt Q5NUL3) (assay: Measurement of activity of GPR120 agonist (cell-based calcium fluorescence assay)). Settings: CHO-K1 cells expressing Ga16 and hGPR120, Calcium 5 dye fluorescence; activity class; read-out: EC50.
T1 construct: expressed in transfected cells; host or cells: CHO-K1
T1 sequence (Q5NUL3 1-361): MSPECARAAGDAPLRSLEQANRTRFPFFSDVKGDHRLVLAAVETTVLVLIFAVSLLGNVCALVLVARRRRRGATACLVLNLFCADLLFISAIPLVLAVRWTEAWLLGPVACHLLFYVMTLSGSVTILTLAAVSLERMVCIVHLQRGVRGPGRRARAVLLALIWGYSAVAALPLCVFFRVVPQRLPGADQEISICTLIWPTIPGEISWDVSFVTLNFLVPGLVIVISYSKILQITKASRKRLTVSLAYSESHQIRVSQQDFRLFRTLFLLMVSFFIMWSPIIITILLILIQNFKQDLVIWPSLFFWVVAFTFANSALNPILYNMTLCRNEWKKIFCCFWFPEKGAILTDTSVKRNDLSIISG
In short: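 CHO-K1 cells co-expressing Gα16 and hGPR120, plated 18 h, loaded with Calcium 5 dye for 1 h at 37 °C, then given serially diluted agonists (final 0.5% DMSO). Fluorescence increase expressed as relative % of the 1% DMSO-only signal.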

| EC50 [nM] | SMILES |
| --- | --- |
| 200 to 2000 | O=C(O)CCCOc1c(F)cc(-c2cccc(CC3CCCC3)c2)cc1F [Example 98, 4-[4-[3-(cyclopentylmethyl)phenyl]-2,6-difluoro-phenoxy]butanoic acid] |
| < 200 | O=C(O)CCCOc1c(F)cc(-c2ccccc2CC2CCCC2)cc1F [Example 99, 4-[4-[2-(cyclopentylmethyl)phenyl]-2,6-difluoro-phenoxy]butanoic acid] |
| < 200 | O=C(O)CCCOc1c(F)cc(-c2cccc(CC3CCCC3)n2)cc1F [Example 100, 4-[4-[6-(cyclopentylmethyl)-2-pyridyl]-2,6-difluoro-phenoxy]butanoic acid] |
| < 200 | O=C(O)CCCOc1c(F)cc(-c2ccccc2CC2CCC2)cc1F [Example 101, 4-[4-[2-(cyclobutylmethyl)phenyl]-2,6-difluoro-phenoxy]butanoic acid] |
| < 200 | O=C(O)CCCOc1c(F)cc(-c2cccc(CC3CCC3)c2)cc1F [Example 102, 4-[4-[3-(cyclobutylmethyl)phenyl]-2,6-difluoro-phenoxy]butanoic acid] |
| < 200 | O=C(O)CCCOc1c(F)cc(-c2cccc(CC3CCC3)n2)cc1F [Example 103, 4-[4-[6-(cyclobutylmethyl)-2-pyridyl]-2,6-difluoro-phenoxy]butanoic acid] |
| < 200 | O=C(O)CCCOc1c(F)cc(-c2ccccc2C2CCCC2)cc1F [Example 104, 4-[4-(2-cyclopentylphenyl)-2,6-difluoro-phenoxy]butanoic acid] |
| < 200 | O=C(O)CCCOc1c(F)cc(-c2cccc(C3CCCC3)n2)cc1F [Example 105, 4-[4-(6-cyclopentyl-2-pyridyl)-2,6-difluoro-phenoxy]butanoic acid] |
| 2000 to 20000 | CC(C)Cc1ncccc1-c1cc(F)c(OCCCC(=O)O)c(F)c1 [Example 106, 4-[2,6-difluoro-4-(2-isobutyl-3-pyridyl)phenoxy]butanoic acid] |
| 200 to 2000 | O=C(O)CCCOc1c(F)cc(-c2cccnc2C2CCCC2)cc1F [Example 107, 4-[4-(2-cyclopentyl-3-pyridyl)-2,6-difluoro-phenoxy]butanoic acid] |
| < 200 | O=C(O)CCCOc1c(F)cc(-c2cccnc2CC2CCCC2)cc1F [Example 108, 4-[4-[2-(cyclopentylmethyl)-3-pyridyl]-2,6-difluoro-phenoxy]butanoic acid] |
| 200 to 2000 | O=C(O)CCCOc1c(F)cc(-c2cccnc2-n2cccc2)cc1F [Example 109, 4-[2,6-difluoro-4-(2-pyrrol-1-yl-3-pyridyl)phenoxy]butanoic acid] |
| > 20000 | Cc1cnn(-c2ncccc2-c2cc(F)c(OCCCC(=O)O)c(F)c2)c1 [Example 110, 4-[2,6-difluoro-4-[2-(4-methylpyrazol-1-yl)-3-pyridyl]phenoxy]butanoic acid] |
| > 20000 | O=C(O)CCCOc1c(F)cc(-c2cccnc2N2CCOCC2)cc1F [Example 111, 4-[2,6-difluoro-4-(2-morpholino-3-pyridyl)phenoxy]butanoic acid] |
| > 20000 | O=C(O)CCCOc1c(F)cc(-c2cccnc2NCC2CCOCC2)cc1F [Example 112, 4-[2,6-difluoro-4-[2-(tetrahydropyran-4-ylmethylamino)-3-pyridyl]phenoxy]butanoic acid] |
| < 200 | C[C@@H](CCC(=O)O)Oc1c(F)cc(-c2cccnc2SC2CCC2)cc1F [Example 114, (4S)-4-[4-(2-cyclobutylsulfanyl-3-pyridyl)-2,6-difluoro-phenoxy]pentanoic acid] |

| EC50 [nM] | SMILES |
| --- | --- |
| < 200 | C[C@H](CCC(=O)O)Oc1c(F)cc(-c2cccc(Oc3ccccc3)c2)cc1F [Example 118, (4R)-4-[2,6-difluoro-4-(3-phenoxyphenyl)phenoxy]pentanoic acid] |
| < 200 | CC(C)Oc1cccc(-c2cc(F)c(SCC3(CC(=O)O)CC3)c(F)c2)c1 [Example 121, [1-(3,5-difluoro-3′-isopropoxy-biphenyl-4-ylsulfanylmethyl)-cyclopropyl]-acetic acid] |
| < 200 | O=C(O)CCCSc1c(F)cc(-c2cccc(OC3CCCC3)c2)cc1F [Example 122, 4-(3′-cyclopentyloxy-3,5-difluoro-biphenyl-4-ylsulfanyl)-butyric acid] |
| < 200 | O=C(O)CCCSc1ccc(-c2cccnc2OC2CCCC2)cc1 [Example 123, 4-[4-(2-cyclopentyloxy-pyridin-3-yl)-phenylsulfanyl]-butyric acid] |
| 200 to 2000 | O=C(O)CCCSc1ccc(-c2cccnc2OCC2CC2)cc1 [Example 124, 4-[4-(2-cyclopropylmethoxy-pyridin-3-yl)-phenylsulfanyl]-butyric acid] |
| < 200 | O=C(O)CCCSc1ccc(-c2cccc(Oc3ccccc3)c2)cc1 [Example 125, 4-(3′-phenoxy-biphenyl-4-ylsulfanyl)-butyric acid] |
| < 200 | O=C(O)CCCSc1ccc(-c2cccc(OC3CCCC3)c2)cc1 [Example 126, 4-(3′-cyclopentyloxy-biphenyl-4-ylsulfanyl)-butyric acid] |
| < 200 | CCCOc1cccc(-c2ccc(SCCCC(=O)O)cc2)c1 [Example 127, 4-(3′-propoxy-biphenyl-4-ylsulfanyl)-butyric acid] |
| 200 to 2000 | O=C(O)CCCSc1ccc(-c2cccc(OC3CCCC3)n2)cc1 [Example 129, 4-[4-(6-cyclopentyloxy-pyridin-2-yl)-phenylsulfanyl]-butyric acid] |
| < 200 | CC(C)Oc1cccc(-c2ccc(SCCCC(=O)O)cc2)n1 [Example 130, 4-[4-(6-isopropoxy-pyridin-2-yl)-phenylsulfanyl]-butyric acid] |
| 200 to 2000 | CC(C)Oc1ncccc1-c1ccc(SCCCC(=O)O)cc1 [Example 131, 4-[4-(2-isopropoxy-pyridin-3-yl)-phenylsulfanyl]-butyric acid] |
| < 200 | CCCOc1cccc(-c2ccc(SCCCC(=O)O)cc2)n1 [Example 132, 4-[4-(6-propoxy-pyridin-2-yl)-phenylsulfanyl]-butyric acid] |
| 200 to 2000 | O=C(O)CCCSc1ccc(-c2cccc(SC3CCCC3)n2)cc1 [Example 133, 4-[4-(6-cyclopentylsulfanyl-pyridin-2-yl)-phenylsulfanyl]-butyric acid] |
| < 200 | CCCOc1cccc(-c2cc(F)c(SCCCC(=O)O)c(F)c2)n1 [Example 136, 4-[2,6-difluoro-4-(6-propoxy-pyridin-2-yl)-phenylsulfanyl]-butyric acid] |
| < 200 | CC(C)Oc1cccc(-c2cc(F)c(SCCCC(=O)O)c(F)c2)n1 [Example 137, 4-[2,6-difluoro-4-(6-isopropoxy-pyridin-2-yl)-phenylsulfanyl]-butyric acid] |
| < 200 | CC(C)Oc1ncccc1-c1cc(F)c(SCCCC(=O)O)c(F)c1 [Example 138, 4-[2,6-difluoro-4-(2-isopropoxy-pyridin-3-yl)-phenylsulfanyl]-butyric acid] |

| SMILES | EC50 [nM] |
| --- | --- |
| C[C@H](CCC(=O)O)Oc1c(F)cc(-c2cccc(OC3CCC3)c2)cc1F [Example 116, (4R)-4-[4-[3-(cyclobutoxy)phenyl]-2,6-difluoro-phenoxy]pentanoic acid] | < 200 |
| O=C(O)CCCSc1ccc(-c2cccc(OC3CCC3)n2)cc1 [Example 128, 4-[4-(6-cyclobutoxy-pyridin-2-yl)-phenylsulfanyl]-butyric acid] | < 200 |
| O=C(O)CCCSc1c(F)cc(-c2cccc(OC3CCC3)c2)cc1F [Example 134, 4-(3′-cyclobutoxy-3,5-difluoro-biphenyl-4-ylsulfanyl)-butyric acid] | < 200 |
